Converted amounts (≈) assume the structure as drawn.
Tests used:
[1] = test system: 60 human cancer cell lines; experiment: cells; assay type: cell-based; details: Homo sapiens; for CC50: 48 h, read-out: mean LC50
Method: (§1) Compounds were tested for in vitro activity (48 h drug exposure) across 60 human cancer cell lines through the National Cancer Institute (NCI) Developmental Therapies Screening Program (Boyd et al., 1995).

[2] = test system: colon sub-panel; experiment: cells; assay type: cell-based; details: Homo sapiens, SW-620, read-out: mean LC50 in colon sub-panel
Method: as §1

[3] = test system: renal sub-panel; experiment: cells; assay type: cell-based; details: Homo sapiens, 60 cell, read-out: mean LC50 in renal sub-panel
Method: as §1

[4] = test system: HCT 116 colon carcinoma; experiment: Growth inhibitory assay (MTT, 72 hr); assay type: cell-based; details: Homo sapiens, 72 hr exposure
Method: (§2) Compounds were prepared as 10 mM top stocks, dissolved in DMSO, and stored at 4° C., protected from light, for a maximum period of 4 weeks. Human derived cell lines (HCT 116, HT29 colon carcinoma; MCF-7 (ER+), MDA 468 (ER−) breast carcinoma; A549 lung adenocarcinoma) were routinely cultivated at 37° C. in an atmosphere of 5% CO2 in RPMI 1640 medium supplemented with 2 mM L-glutamine and 10% fetal calf serum and subcultured twice weekly to maintain continuous logarithmic growth. Cells were seeded into 96-well microtiter plates at a density of 5×10^3 per well and allowed 24 hr to adhere before drugs were introduced (final concentration 0.1 nM–100 μM, n=8). Serial drug dilutions were prepared in medium immediately prior to each assay. At the time of drug addition and following 72 hr exposure, MTT was added to each well (final concentration 400 µg/mL). Incubation at 37° C. for 4 hr allowed reduction of MTT by mitochondrial dehydrogenase to an insoluble formazan product. Well contents were aspirated and formazan solubilized by addition of DMSO:glycine buffer (pH 10.5) (4:1). Absorbance was measured using an Anthos Labtec systems plate reader at 550 nm, and used as a measure of cell viability; thus cell growth or drug toxicity was determined.

[5] = test system: HT29 colon carcinoma; experiment: Growth inhibitory assay (MTT, 72 hr); assay type: cell-based; details: Homo sapiens, HT-29, 72 hr exposure
Method: as §2

[6] = test system: MCF-7 (ER+) breast carcinoma; experiment: Growth inhibitory assay (MTT, 72 hr); assay type: cell-based; details: Homo sapiens, MCF7, 72 hr exposure
Method: as §2

[7] = test system: MDA 468 (ER−) breast carcinoma; experiment: Growth inhibitory assay (MTT, 72 hr); assay type: cell-based; details: Homo sapiens, 72 hr exposure
Method: as §2

[8] = test system: Mycobacterium tuberculosis H37Rv (ATCC 27294); experiment: Microplate Alamar Blue Assay (MABA), TAACF primary screening; assay type: cell-based; details: lowest concentration effecting a reduction in fluorescence of 90% relative to controls
Text: Compounds were submitted to the Tuberculosis Antimicrobial Acquisition and Coordinating Facility (TAACF) for testing as antimycobacterial drugs.
Compounds were subjected to in vitro evaluation for antimycobacterial activity.
See, for example, Collins et al., 1997.

[9] = test system: A549 lung adenocarcinoma; experiment: Growth inhibitory assay (MTT, 72 hr); assay type: cell-based; details: Homo sapiens, 72 hr exposure
Method: as §2

[10] = mean over NCI 60 cell panel, 48 h drug exposure

| melting point [°C] | SMILES | GI50 [1, 10] [µM] | CC50 ([1]; 60 cell) [µM] | LC50 [2] [µM] | mean LC50 [3] [µM] | IC50 [4] [µM] | IC50 [5] [µM] | IC50 [6] [µM] | IC50 [7] [µM] | MIC [8] [µg/mL] | GI50 ([1]; 60 cell, Table 5) [µM] | IC50 [9] [µM] |
| --- | --- | --- | --- | --- | --- | --- | --- | --- | --- | --- | --- | --- |
|  | NC(CCC(=O)NC(CSC1CC(=O)C=CC1(O)c1nc2ccccc2s1)C(=O)NCC(=O)O)C(=O)O (centres unmarked) [Q28, 4-Benzothiazol-2-yl-5-S-glutathionyl-4-hydroxy-cyclohex-2-enone] | 2.19 |  |  |  |  |  |  |  |  |  |  |
|  | COC1(c2nc3ccccc3s2)C=CC(=NS(=O)(=O)c2ccc(C)cc2)C=C1 (centres unmarked) [Q29, N-[4-methoxy-4-(benzothiazol-2-yl)cyclohexa-2,5-dienylidene]-4-methylbenzenesulphonamide] | 15.5 | 83.2 | > 100 | > 100 |  |  |  |  |  |  |  |
|  | O=C1C=CC(O)(c2nc3ccccc3s2)C(Cl)=C1 (centres unmarked) [Q06, 4-(Benzothiazol-2-yl)-3-chloro-4-hydroxy-2,5-cyclohexadien-1-one] | 0.46 | 6.31 | 2.31 | 1.8 | 14.9 | 26.3 |  |  |  |  |  |
|  | CCSC1CC(=O)CC(SCC)C1(O)c1ccccc1 (centres unmarked) [Q22, 3,5-Di(ethylthio)-4-hydroxy-4-phenylcyclohexan-1-one] | 12.6 |  |  |  |  |  |  |  |  |  |  |
|  | O=C1C=CC(O)(c2cc3ccccc3s2)c2ccccc21 (centres unmarked) [Q46, 4-Benzothiophen-2-yl-4-hydroxy-4H-naphth-1-one] | 2.29 | 70.8 | > 100 | > 100 |  |  |  |  |  |  |  |
|  | O=C1CCC(O)(c2nc3ccccc3s2)CC1 [Q43, 4-(Benzothiazol-2-yl)-4-hydroxycyclohexanone] | > 100 | > 100 | > 100 | > 100 |  |  |  |  |  |  |  |
| 138 | O=C1C=CC(OC(=O)c2ccc([N+](=O)[O-])cc2)(c2nc3ccccc3s2)C=C1 [Q34, 4-(para-nitrobenzoyloxy)-4-(benzothiazol-2-yl)-2,5-cyclohexadien-1-one] |  |  |  |  |  |  |  |  |  |  |  |
|  | O=C1C=CC(O)(c2cccc3ccccc23)C=C1 [Q09, 4-(Naphth-1-yl)-4-hydroxy-2,5-cyclohexadien-1-one] | 1.82 | 25.7 | 12.2 | 17 | 0.42 | 1.36 | 0.78 | 1.77 |  |  |  |
|  | O=C1CC(Sc2ccccc2)C(O)(c2ccccc2)C(Sc2ccccc2)C1 (centres unmarked) [Q23, 4-Hydroxy-4-phenyl-3,5-di(phenylthio)-cyclohexan-1-one] | 1.82 |  |  |  |  |  |  |  |  |  |  |
| 137 | COc1ccc(C(=O)OC2(c3nc4ccccc4s3)C=CC(=O)C=C2)cc1 [Q35, 4-(para-methoxybenzoyloxy)-4-(benzothiazol-2-yl)-2,5-cyclohexadien-1-one] |  |  |  |  |  |  |  |  |  |  |  |
|  | O=C1C=CC(O)(c2nccs2)C=C1 [Q14, 4-(Thiazol-2-yl)-4-hydroxy-2,5-cyclohexadien-1-one] | 1.35 | 14.5 | 6.19 | 9.17 | 0.618 | 0.719 |  |  | 3.13 (≈ 16.2 µM) |  |  |
|  | O=C1C=CC(O)(c2ccccc2)C=C1 [Q11, 4-Phenyl-4-hydroxy-2,5-cyclohexadien-1-one] | 2.29 | 21.9 | 10.6 | 16.7 | 2.22 | 3.63 |  |  |  |  |  |
|  | O=C1/C(=C\c2ccccc2)CC(O)(c2nc3ccccc3s2)C/C1=C/c1ccccc1 (centres unmarked) [Q45, 4-(benzothiazol-2-yl)-2,6-bis(phenylmethinyl)-4-hydroxycyclohexanone] | 2.69 | 47.9 | 17.4 | 37.2 |  |  |  |  |  |  |  |
|  | O=C1C=CC(O)(c2cc3ccccc3s2)C=C1 [Q02, 4-(Benzothiophen-2-yl)-4-hydroxy-2,5-cyclohexadien-1-one] | 0.25 | 5.75 | 1.69 | 1.4 | 0.169 | 0.552 |  |  |  | 0.55 | 2.43 |
|  | O=C1C=CC(O)(c2cccs2)C=C1 [Q13, 4-(Thiophen-2-yl)-4-hydroxy-2,5-cyclohexadien-1-one] | 1.78 | 30.9 | 32.5 | 14.4 | 0.663 | 1.25 | 0.569 | 0.719 | 6.25 (≈ 32.5 µM) |  |  |
|  | COC1(c2nc3ccc(C)cc3s2)C=CC(=NS(=O)(=O)c2ccc(C)cc2)C=C1 (centres unmarked) [Q30, N-[4-methoxy-4-(6-methylbenzothiazol-2-yl)cyclohexa-2,5-dienylidene]4-methylbenzenesulphonamide] | 1.2 | 19.5 | 9.92 | 10.6 |  |  |  |  |  |  |  |
|  | COC1(c2nc3c(F)cccc3s2)C=CC(=NS(=O)(=O)c2ccc(C)cc2)C=C1 (centres unmarked) [Q33, N-[4-methoxy-4-(4-fluorobenzothiazol-2-yl)cyclohexa-2,5-dienylidene]-4-methylbenzenesulphonamide] | 2.57 | 27.5 | 26.9 | 14.4 |  |  |  |  |  |  |  |
|  | O=C1C=CC(O)(c2cc3ccccc3o2)c2ccccc21 (centres unmarked) [Q47, 4-(Benzofuran-2-yl)-4-hydroxy-4H-naphth-1-one] | 0.74 | 7.76 | 7.76 | 6.48 |  |  |  |  |  |  |  |
|  | COC1(c2ccccc2)C=CC(=O)C=C1 [Q16, 4-Methoxy-4-phenyl-2,5-cyclohexadien-1-one] | 25.4 |  |  |  |  |  |  |  |  |  |  |
|  | CC(=O)OC1(c2ccccc2)C=CC(=O)C=C1 [Q21, 4-acetoxy-4-phenyl-2,5-cyclohexadien-1-one] | 4.79 |  |  |  |  |  |  |  |  |  |  |
| 59 | CCOC1(c2nc3ccccc3s2)C=CC(=O)C=C1 [Q18, 4-(Benzothiazol-2-yl)-4-ethoxy-2,5-cyclohexadien-1-one] |  |  |  |  |  |  |  |  |  |  |  |
|  | O=C1CC(Sc2ccccc2)C(O)(c2nc3ccccc3s2)C(Sc2ccccc2)C1 (centres unmarked) [Q25] | 0.59 |  |  |  |  |  |  |  | 1.56 (≈ 3.36 µM) |  |  |
|  | O=C1CC(SCc2ccccc2)C(O)(c2ccccc2)C(SCc2ccccc2)C1 (centres unmarked) [Q24, 4-Hydroxy-4-phenyl-3,5-di[(phenyl)methylthio]-cyclohexan-1-one] | 3.98 |  |  |  |  |  |  |  |  |  |  |
|  | COc1ccc2nc(C3(OC)C=CC(=NS(=O)(=O)c4ccc(C)cc4)C=C3)sc2c1 (centres unmarked) [Q31, N-[4-methoxy-4-(6-methoxybenzothiazol-2-yl)cyclohexa-2,5-dienylidene]-4-methylbenzenesulphonamide] | 1.91 | 18.6 | 13.2 | 11.2 |  |  |  |  |  |  |  |
|  | O=C1C=CC(O)(c2ccc3ccccc3c2)C=C1 [Q08, 4-(Naphth-2-yl)-4-hydroxy-2,5-cyclohexadien-1-one] | 0.81 | 11.7 | 6.58 | 4.68 | 0.82 | 2.5 | 1.3 | 1.4 |  |  |  |
|  | COC1(c2nc3ccc(F)cc3s2)C=CC(=NS(=O)(=O)c2ccc(C)cc2)C=C1 (centres unmarked) [Q32, N-[4-methoxy-4-(6-fluorobenzothiazol-2-yl)cyclohexa-2,5-dienylidene]-4-methylbenzenesulphonamide] | 1.74 | 30.2 | 25.6 | 19.1 |  |  |  |  |  |  |  |
|  | CC1=CC(O)(c2nc3ccccc3s2)C=C(C)C1=O [Q44, 4-(benzothiazol-2-yl)-4-hydroxy-2,6-dimethylcyclohexa-2,5-dien-1-one] | 38.2 | > 100 | > 100 | > 100 |  |  |  |  |  |  |  |
|  | O=C1C=CC(O)(c2ccccn2)C=C1 [Q12, 4-(Pyridin-2-yl)-4-hydroxy-2,5-cyclohexadien-1-one] | 1.91 | 20.4 | 6.9 | 11.3 | 0.547 | 0.46 | 0.72 | 1.5 | 6.25 (≈ 33.4 µM) |  |  |
|  | O=C1C=CC(O)(c2cnc3ccccc3c2)C=C1 [Q10, 4-(Quinolin-3-yl)-4-hydroxy-2,5-cyclohexadien-1-one] | 1.07 | 15.8 | 10.2 | 9.66 | 0.72 | 0.97 | 0.77 | 1.7 | 3.13 (≈ 13.2 µM) |  |  |

| SMILES | melting point [°C] | GI50 [1, 10] [µM] | CC50 ([1]; 60 cell) [µM] | LC50 [2] [µM] | mean LC50 [3] [µM] | IC50 [4] [µM] | IC50 [5] [µM] | IC50 [6] [µM] | IC50 [7] [µM] | MIC [8] [µg/mL] | GI50 ([1]; 60 cell, Table 5) [µM] | IC50 [9] [µM] |
| --- | --- | --- | --- | --- | --- | --- | --- | --- | --- | --- | --- | --- |
| O=C1C=CC(O)(c2nc3ccccc3[nH]2)C=C1 [Q07, 4-(Benzimidazol-2-yl)-4-hydroxy-2,5-cyclohexadien-1-one] | 234 | 1.1 |  |  |  | 0.21 | 0.504 | 0.509 | 0.353 | 3.13 (≈ 13.8 µM) |  |  |

Source: patent US7144893B2, “4-aryl quinols and analogs thereof as therapeutic agents” (Cancer Research Technology Limited, priority 2001, dated 2006)
